US20140088006A1, “Stem Cell Mobilization and Tissue Repair and Regeneration” (Wellstat Therapeutics Corporation, priority 2011, published 2014)
Entries after “also recorded” stand apart in the source; their conditions may differ. No end group written: not given here.

Key:
[1] = tested on: human umbilical cord blood CD34+ cells; assay: Transwell migration of CD34+ cells toward SDF-1α; type: cell-based
Experimental: CD34^+ cell migration toward 100 ng/mL SDF-1α in a Corning Transwell device (24 well format, 5 μm pore size, polycarbonate membrane) was studied with and without Compound X and in the presence or absence of either anti-CXCR4 antibody or the CXCR4 antagonist AMD3100.
The CD34^+ population of cells from human umbilical cord blood was obtained from Lonza, defrosted and expanded ex vivo with cytokine cocktail for 6 days according to standard procedures. Briefly, 10 wells of two 12 well dishes were seeded at a density of 8×10^4 cells per well in 2 mL of CellGenix serum free growth medium (SCGM). Cells were allowed to expand in a 37° C. incubator (5% CO2, 86% RH) for 6 days. During the expansion, the 10 wells of one of the two plates received treatments of Compound X to a final concentration of 5 ng/mL (10 μL from freshly prepared 1 μg/mL stock in SCGM) at 24 hours and 72 hours after initiation of the culture.
3 hours prior to the start of the migration assay, both control and Compound X expanded cells were pulsed with either 0, 5 ng/mL or 5 μg/mL Compound X. Migration assay was performed according to the method described (Tavor et al. 2005). Cells were centrifuged for 5 minutes at 1100 RPM and resuspended at a density of 2×10^6 cells/mL in CellGenix SCGM serum free medium containing 1% Fraction V BSA either in the presence or absence of 5 ng/mL or 5 μg/mL Compound X for 3 hours. The feeder tray (bottom) was prepared with 600 μL of serum free SCGM supplemented with 1% BSA in the presence or absence of SDF-1α. All treatments were conducted in triplicate. The wells of the migration chamber (top) received 100 μL of cells from the 2×10^6 cells/mL suspensions, preincubated with 5 ng/mL or 5 μg/mL Compound X or Control. All treatments were conducted in triplicates. The plates were placed in a 37° C. incubator (5% CO2, 86% RH) and cells were allowed to migrate for 4 hours. […]
The cells were thawed at room temperature. […] 150 μL of the resulting cell lysates were transferred to a new 96 well plate and the fluorescence was read on a […] SpectraMax M2 fluorimeter (ex 485, em 538). […]

[2] = tested on: white blood cells in peripheral blood; assay: White blood cell number after 4 daily subcutaneous injections; type: in vivo, C57Bl/6 male mice; set-up: White blood cell number in peripheral blood: unit not given here; conditions: for White blood cell number in peripheral blood: 1 hr after injection
Experimental: This example is based on a protocol for a 4-day course of once-daily Compound X injections into C57Bl/6 male mice similar to G-CSF. Two effective dose levels of Compound X were found previously to mobilize HSC 1 hr after single injection and were selected for this experiment. Four-month old C57Bl/6 male mice (Jackson Laboratories) were subcutaneously injected with 0.9% saline, 125 μg/kg Compound X or 250 μg/kg Compound X on days 1, 2, 3 and 4 as described in Table 4. Each day, one-hour post injections, peripheral blood from 3 mice per group was harvested from the orbital plexus into EDTA-containing tubes. On day 4, a femur and spleen were also removed from mice to assess by FACS whether any toxicity aroused from repeated injections of Compound X.
As in the previous example to determine mobilization of colony-forming cells out of the bone marrow, mononuclear cells from peripheral blood were plated into MethoCult 3434 media (Stem Cell Technologies). Briefly, after white blood cell counting, the remaining peripheral blood was diluted (1:1, v/v) with 0.9% saline (APP Pharmaceutical) and layered (2:1, v/v) onto 1-Step™1.077 A (Accurate Chemicals) in 15-ml centrifuge tubes. Cells were centrifuged at 600×g for 20 min at room temperature. The mononuclear cells were harvested from the interface between the plasma layer and the 1-Step™ A solution using a 1-ml syringe and blunt-end needle. The cells were transferred to 15-ml centrifuge tubes and washed twice in 1×PBS. Cells were resuspended in 1 ml of IMDM and cell counts were obtained using the Coulter counter. Cells were placed into 35-mm Petri dishes at 200,000 cells per dish with 5 dishes per group. Cells incubated for 10 days in a 37° C. and 5% CO2 humidified incubator. CFU colonies were then scored using an inverted microscope—CFU-GM detected on day 7 and CFU-GEMM—on day 10. Data presented in Tables 7, 8 and 9, FIGS. 3 and 4.

FPHFDLSHGSAQV [Compound X, tridecapeptide that acts on stem cells]
interference with the effect of AMD3100 or anti CXCR4 antibody on migration ([1]; 5 ng/mL Compound X): did not interfere
CD34+ cell Transwell migration toward SDF-1α ([1]; cells expanded with 5 ng/mL and/or pulsed 3 hours with Compound X, 100 ng/mL SDF-1α, 4 hours): no significant difference; also recorded: had no effect
White blood cell number in peripheral blood ([2]; 125 μg/kg s.c. daily, Day 1): 7.4
White blood cell number in peripheral blood ([2]; 125 μg/kg s.c. daily, Day 2): 8.8
White blood cell number in peripheral blood ([2]; 125 μg/kg s.c. daily, Day 3): 6.0
White blood cell number in peripheral blood ([2]; 125 μg/kg s.c. daily, Day 4): 8.6
White blood cell number in peripheral blood ([2]; 250 μg/kg s.c. daily, Day 1): 8.6
White blood cell number in peripheral blood ([2]; 250 μg/kg s.c. daily, Day 2): 8.2
White blood cell number in peripheral blood ([2]; 250 μg/kg s.c. daily, Day 3): 10.2
White blood cell number in peripheral blood ([2]; 250 μg/kg s.c. daily, Day 4): 9.2
White blood cell number ([2]; multiple daily injections, 125 and 250 μg/kg): did not change
